# What was measured:
# Experiment in all cases: DiscoverX KINOMEscan kinase profiling (468 assays)
# Type in all cases: binding
# human kinome [1] = target: human kinome (Homo sapiens, UniProt O00506); conditions: kinase YSK1 (Entrez STK25); compound concentration 1000 nM; read-out: Percent Control
# Procedure, shortened: (§1)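 DNA-tagged kinases competed for immobilized biotinylated ligands on streptavidin magnetic beads, with bound kinase quantified by qPCR. VIP152 in DMSO was tested against a DMSO control.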
# human kinome [2] = target: human kinome (Homo sapiens, UniProt O75716); conditions: kinase STK16 (Entrez STK16); compound concentration 1000 nM; read-out: Percent Control
# Procedure, shortened: as §1
# human kinome [3] = target: human kinome (Homo sapiens, UniProt P10721, V559D); conditions: KIT(V559D); 100 nM; read-out: Percent Control
# Procedure, shortened: as §1
# human kinome [4] = target: human kinome (Homo sapiens, UniProt P12931); conditions: kinase SRC (Entrez SRC); compound concentration 1000 nM; read-out: Percent Control
# Procedure, shortened: as §1
# human kinome [5] = target: human kinome (Homo sapiens, UniProt P14616); conditions: INSRR; 100 nM; read-out: Percent Control
# Procedure, shortened: as §1
# human kinome [6] = target: human kinome (Homo sapiens, UniProt P15056, V600E); conditions: BRAF(V600E); 100 nM; read-out: Percent Control
# Procedure, shortened: as §1
# human kinome [7] = target: human kinome (Homo sapiens, UniProt P16234); conditions: read-out: Percent Control
# Procedure, shortened: as §1
# human kinome [8] = target: human kinome (Homo sapiens, UniProt P35590); conditions: kinase TIE1 (Entrez TIE1); compound concentration 1000 nM; read-out: Percent Control
# Procedure, shortened: as §1
# human kinome [9] = target: human kinome (Homo sapiens, UniProt P36888, D835Y); conditions: FLT3(D835Y); 100 nM; read-out: Percent Control
# Procedure, shortened: as §1
# human kinome [10] = target: human kinome (Homo sapiens, UniProt P51957); conditions: read-out: Percent Control
# Sequence of human kinome (Homo sapiens, UniProt P51957) (P51957 whole entry): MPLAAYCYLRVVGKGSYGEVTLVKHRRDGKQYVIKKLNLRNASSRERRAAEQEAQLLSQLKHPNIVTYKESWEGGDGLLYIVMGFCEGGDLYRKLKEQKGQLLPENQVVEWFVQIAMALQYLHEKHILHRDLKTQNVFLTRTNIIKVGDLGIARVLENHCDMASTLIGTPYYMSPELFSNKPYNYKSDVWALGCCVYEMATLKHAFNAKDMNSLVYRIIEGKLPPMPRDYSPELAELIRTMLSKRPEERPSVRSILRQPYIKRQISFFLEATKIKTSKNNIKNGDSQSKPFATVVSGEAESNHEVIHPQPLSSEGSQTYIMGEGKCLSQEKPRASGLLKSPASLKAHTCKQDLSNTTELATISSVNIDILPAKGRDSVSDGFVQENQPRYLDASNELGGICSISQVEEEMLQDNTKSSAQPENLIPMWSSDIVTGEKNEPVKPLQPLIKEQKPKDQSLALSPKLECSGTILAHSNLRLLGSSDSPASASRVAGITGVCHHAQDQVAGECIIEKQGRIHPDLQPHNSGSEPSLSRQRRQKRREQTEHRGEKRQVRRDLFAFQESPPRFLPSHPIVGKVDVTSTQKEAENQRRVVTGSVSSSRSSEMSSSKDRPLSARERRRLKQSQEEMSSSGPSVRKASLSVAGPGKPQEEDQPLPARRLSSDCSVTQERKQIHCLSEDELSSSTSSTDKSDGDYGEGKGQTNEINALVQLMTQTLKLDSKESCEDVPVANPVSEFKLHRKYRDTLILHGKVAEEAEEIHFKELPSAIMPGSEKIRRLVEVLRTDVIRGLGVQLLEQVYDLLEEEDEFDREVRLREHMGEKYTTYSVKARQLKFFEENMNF
# Procedure, shortened: as §1
# human kinome [11] = target: human kinome (Homo sapiens, UniProt P53350); conditions: read-out: Percent Control
# Sequence of human kinome (Homo sapiens, UniProt P53350) (P53350 whole entry): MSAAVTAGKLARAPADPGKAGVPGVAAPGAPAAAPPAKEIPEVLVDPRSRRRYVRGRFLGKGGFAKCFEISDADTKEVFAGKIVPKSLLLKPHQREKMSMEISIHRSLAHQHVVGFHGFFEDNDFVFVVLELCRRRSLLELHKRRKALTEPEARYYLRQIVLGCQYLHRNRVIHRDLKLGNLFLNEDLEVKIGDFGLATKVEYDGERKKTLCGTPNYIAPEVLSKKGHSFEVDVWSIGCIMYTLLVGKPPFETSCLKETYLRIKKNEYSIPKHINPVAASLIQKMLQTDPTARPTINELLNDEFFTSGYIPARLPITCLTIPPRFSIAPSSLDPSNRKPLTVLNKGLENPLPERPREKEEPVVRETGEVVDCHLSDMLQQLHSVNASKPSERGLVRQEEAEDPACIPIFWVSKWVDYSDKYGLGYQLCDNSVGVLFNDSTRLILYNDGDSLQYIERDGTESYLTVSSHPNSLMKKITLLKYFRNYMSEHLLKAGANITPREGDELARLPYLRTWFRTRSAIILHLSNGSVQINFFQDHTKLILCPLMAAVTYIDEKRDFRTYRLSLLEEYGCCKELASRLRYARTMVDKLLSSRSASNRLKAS
# Procedure, shortened: as §1
# human kinome [12] = target: human kinome (Homo sapiens, UniProt P54646); conditions: AMPK-alpha2 (Entrez PRKAA2); 100 nM; read-out: Percent Control
# Procedure, shortened: as §1
# human kinome [13] = target: human kinome (Homo sapiens, UniProt P54756); conditions: EPHA5; 100 nM; read-out: Percent Control
# Procedure, shortened: as §1
# human kinome [14] = target: human kinome (Homo sapiens, UniProt Q02779); conditions: MLK2 (Entrez MAP3K10); 100 nM; read-out: Percent Control
# Procedure, shortened: as §1
# human kinome [15] = target: human kinome (Homo sapiens, UniProt Q09013); conditions: DMPK; 100 nM; read-out: Percent Control
# Procedure, shortened: as §1
# human kinome [16] = target: human kinome (Homo sapiens, UniProt Q13627); conditions: DYRK1A; 100 nM; read-out: Percent Control
# Procedure, shortened: as §1
# human kinome [17] = target: human kinome (Homo sapiens, UniProt Q15835); conditions: GRK1; 100 nM; read-out: Percent Control
# Procedure, shortened: as §1
# human kinome [18] = target: human kinome (Homo sapiens, UniProt Q56UN5); conditions: kinase YSK4 (Entrez MAP3K19); compound concentration 1000 nM; read-out: Percent Control
# Procedure, shortened: as §1
# human kinome [19] = target: human kinome (Homo sapiens, UniProt Q6DT37); conditions: DMPK2 (Entrez CDC42BPG); 100 nM; read-out: Percent Control
# Procedure, shortened: as §1
# human kinome [20] = target: human kinome (Homo sapiens, UniProt Q6ZWH5); conditions: read-out: Percent Control
# Sequence of human kinome (Homo sapiens, UniProt Q6ZWH5) (Q6ZWH5 whole entry): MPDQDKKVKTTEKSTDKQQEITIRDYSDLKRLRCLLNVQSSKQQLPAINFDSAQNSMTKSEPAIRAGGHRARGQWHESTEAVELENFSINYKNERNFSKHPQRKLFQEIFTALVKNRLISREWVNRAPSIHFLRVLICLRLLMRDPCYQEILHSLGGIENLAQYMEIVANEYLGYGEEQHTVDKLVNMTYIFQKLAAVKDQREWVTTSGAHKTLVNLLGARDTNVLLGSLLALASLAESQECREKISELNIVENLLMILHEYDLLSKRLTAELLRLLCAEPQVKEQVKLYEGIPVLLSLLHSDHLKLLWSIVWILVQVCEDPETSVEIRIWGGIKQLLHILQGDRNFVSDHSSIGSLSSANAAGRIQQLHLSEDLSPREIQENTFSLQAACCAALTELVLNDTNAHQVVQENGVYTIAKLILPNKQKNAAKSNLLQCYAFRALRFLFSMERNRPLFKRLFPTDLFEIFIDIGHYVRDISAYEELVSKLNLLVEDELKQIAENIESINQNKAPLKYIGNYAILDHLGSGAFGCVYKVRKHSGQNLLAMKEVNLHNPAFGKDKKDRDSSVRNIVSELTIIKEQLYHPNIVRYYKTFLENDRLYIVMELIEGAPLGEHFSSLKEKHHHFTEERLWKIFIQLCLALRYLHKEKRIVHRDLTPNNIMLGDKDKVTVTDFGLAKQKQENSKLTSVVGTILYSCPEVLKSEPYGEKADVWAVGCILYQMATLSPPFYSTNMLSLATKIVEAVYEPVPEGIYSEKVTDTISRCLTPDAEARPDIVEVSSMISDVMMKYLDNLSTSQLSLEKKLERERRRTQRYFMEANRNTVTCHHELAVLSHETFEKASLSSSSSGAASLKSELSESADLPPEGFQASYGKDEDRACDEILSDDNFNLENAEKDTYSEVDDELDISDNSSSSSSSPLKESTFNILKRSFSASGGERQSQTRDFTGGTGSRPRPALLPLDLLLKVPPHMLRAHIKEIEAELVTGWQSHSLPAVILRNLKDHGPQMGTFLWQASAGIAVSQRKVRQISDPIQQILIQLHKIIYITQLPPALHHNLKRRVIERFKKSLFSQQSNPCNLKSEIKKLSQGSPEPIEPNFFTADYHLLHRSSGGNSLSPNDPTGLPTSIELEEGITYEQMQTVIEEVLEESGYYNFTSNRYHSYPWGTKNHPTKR
# Procedure, shortened: as §1
# human kinome [21] = target: human kinome (Homo sapiens, UniProt Q8NFD2); conditions: ANKK1; 100 nM; read-out: Percent Control
# Procedure, shortened: as §1
# human kinome [22] = target: human kinome (Homo sapiens, UniProt Q8TDR2); conditions: kinase STK35 (Entrez STK35); compound concentration 1000 nM; read-out: Percent Control
# Procedure, shortened: as §1
# human kinome [23] = target: human kinome (Homo sapiens, UniProt Q96BR1); conditions: kinase SGK3 (Entrez SGK3); compound concentration 1000 nM; read-out: Percent Control
# Sequence of human kinome (Homo sapiens, UniProt Q96BR1) (Q96BR1 whole entry): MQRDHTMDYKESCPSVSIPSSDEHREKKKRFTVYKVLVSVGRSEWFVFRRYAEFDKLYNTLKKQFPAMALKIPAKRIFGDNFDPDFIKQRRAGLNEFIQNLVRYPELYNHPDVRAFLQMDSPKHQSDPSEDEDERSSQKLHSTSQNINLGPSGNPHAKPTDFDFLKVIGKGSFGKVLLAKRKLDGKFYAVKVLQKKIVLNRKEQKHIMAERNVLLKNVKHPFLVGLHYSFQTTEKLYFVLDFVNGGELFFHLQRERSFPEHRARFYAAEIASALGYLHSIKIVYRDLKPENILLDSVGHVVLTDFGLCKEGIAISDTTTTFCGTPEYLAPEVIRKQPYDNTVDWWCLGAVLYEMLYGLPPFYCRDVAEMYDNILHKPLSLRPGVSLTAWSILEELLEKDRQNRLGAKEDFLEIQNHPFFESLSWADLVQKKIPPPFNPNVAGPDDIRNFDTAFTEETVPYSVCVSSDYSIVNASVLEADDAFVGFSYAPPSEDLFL
# Procedure, shortened: as §1
# human kinome [24] = target: human kinome (Homo sapiens, UniProt Q9BWU1); conditions: CDK11 (Entrez CDK19); 100 nM; read-out: Percent Control
# Procedure, shortened: as §1
# human kinome [25] = target: human kinome (Homo sapiens, UniProt Q9HBY8); conditions: kinase SGK2 (Entrez SGK2); compound concentration 1000 nM; read-out: Percent Control
# Procedure, shortened: as §1
# human kinome [26] = target: human kinome (Homo sapiens, UniProt Q9NYY3); conditions: read-out: Percent Control
# Sequence of human kinome (Homo sapiens, UniProt Q9NYY3) (Q9NYY3 whole entry): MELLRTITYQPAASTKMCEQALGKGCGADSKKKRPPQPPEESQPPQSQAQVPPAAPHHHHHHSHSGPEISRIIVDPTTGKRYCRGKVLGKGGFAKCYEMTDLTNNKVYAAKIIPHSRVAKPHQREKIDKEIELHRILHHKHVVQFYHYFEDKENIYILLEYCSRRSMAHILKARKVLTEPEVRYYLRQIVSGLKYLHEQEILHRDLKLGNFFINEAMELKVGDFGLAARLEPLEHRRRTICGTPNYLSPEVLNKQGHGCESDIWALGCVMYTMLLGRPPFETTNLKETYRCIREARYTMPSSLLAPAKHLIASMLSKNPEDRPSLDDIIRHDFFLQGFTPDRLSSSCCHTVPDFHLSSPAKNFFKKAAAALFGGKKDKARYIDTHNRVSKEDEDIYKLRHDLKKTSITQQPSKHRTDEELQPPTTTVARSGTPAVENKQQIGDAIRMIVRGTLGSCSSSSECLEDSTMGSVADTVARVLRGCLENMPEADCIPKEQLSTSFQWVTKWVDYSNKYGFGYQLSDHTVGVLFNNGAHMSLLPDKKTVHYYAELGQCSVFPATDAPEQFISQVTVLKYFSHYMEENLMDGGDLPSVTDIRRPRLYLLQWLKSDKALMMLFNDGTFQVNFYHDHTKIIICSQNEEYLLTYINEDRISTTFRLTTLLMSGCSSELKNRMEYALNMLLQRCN
# Procedure, shortened: as §1
# human kinome [27] = target: human kinome (Homo sapiens, UniProt Q9UBF8); conditions: read-out: Percent Control
# Sequence of human kinome (Homo sapiens, UniProt Q9UBF8) (Q9UBF8 whole entry): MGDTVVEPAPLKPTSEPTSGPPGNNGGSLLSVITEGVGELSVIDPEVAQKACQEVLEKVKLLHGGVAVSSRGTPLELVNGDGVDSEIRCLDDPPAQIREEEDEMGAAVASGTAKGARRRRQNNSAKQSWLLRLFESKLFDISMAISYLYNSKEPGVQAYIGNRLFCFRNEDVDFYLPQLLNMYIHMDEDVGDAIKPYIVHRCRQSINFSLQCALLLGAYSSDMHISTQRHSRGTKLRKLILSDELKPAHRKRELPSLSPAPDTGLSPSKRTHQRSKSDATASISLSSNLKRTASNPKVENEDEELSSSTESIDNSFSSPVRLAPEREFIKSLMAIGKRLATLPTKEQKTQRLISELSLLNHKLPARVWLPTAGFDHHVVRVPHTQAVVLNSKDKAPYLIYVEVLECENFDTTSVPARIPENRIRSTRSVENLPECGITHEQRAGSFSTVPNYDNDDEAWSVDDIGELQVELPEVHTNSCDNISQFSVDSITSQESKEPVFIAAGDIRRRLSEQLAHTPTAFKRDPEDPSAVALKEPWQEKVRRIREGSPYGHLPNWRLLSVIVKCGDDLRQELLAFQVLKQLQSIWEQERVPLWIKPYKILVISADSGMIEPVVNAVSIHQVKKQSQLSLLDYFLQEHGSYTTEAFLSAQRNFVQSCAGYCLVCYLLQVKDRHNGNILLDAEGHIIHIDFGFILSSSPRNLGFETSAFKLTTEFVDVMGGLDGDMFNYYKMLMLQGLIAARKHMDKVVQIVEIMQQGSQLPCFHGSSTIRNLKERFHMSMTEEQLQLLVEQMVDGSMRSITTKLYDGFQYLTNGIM
# Procedure, shortened: as §1
# human kinome [28] = target: human kinome (Homo sapiens, UniProt Q9UQ88); conditions: CDC2L2; 100 nM; read-out: Percent Control
# Procedure, shortened: as §1
# human kinome [29] = target: human kinome (Homo sapiens, UniProt Q9Y2H1); conditions: read-out: Percent Control
# Sequence of human kinome (Homo sapiens, UniProt Q9Y2H1) (Q9Y2H1 whole entry): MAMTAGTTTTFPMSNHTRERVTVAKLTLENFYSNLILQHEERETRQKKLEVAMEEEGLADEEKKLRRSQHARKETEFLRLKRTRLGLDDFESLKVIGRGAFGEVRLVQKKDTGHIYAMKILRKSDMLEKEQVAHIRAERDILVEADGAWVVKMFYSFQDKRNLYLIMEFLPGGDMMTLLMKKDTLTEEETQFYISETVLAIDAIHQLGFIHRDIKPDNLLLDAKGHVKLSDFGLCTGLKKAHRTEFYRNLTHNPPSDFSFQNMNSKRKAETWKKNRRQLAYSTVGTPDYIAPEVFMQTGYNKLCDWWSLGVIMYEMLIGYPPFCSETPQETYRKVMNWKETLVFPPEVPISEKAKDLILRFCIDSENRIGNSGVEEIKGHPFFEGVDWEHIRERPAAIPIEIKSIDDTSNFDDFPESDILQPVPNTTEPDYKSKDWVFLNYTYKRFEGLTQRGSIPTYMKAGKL
# Procedure, shortened: as §1
compound,measurement,setting,value
COc1cc(F)ccc1-c1cc(Nc2cc(CS(C)(=N)=O)ccn2)ncc1F (stereo not drawn) [VIP152],remaining binding at 1 µM,human kinome [1],100%
same,remaining binding at 1 µM,human kinome [2],44%
same,remaining binding at 0.1 µM,human kinome [3],100%
same,remaining binding at 1 µM,human kinome [4],83%
same,remaining binding at 0.1 µM,human kinome [5],100%
same,remaining binding at 0.1 µM,human kinome [6],100%
same,remaining binding at 0.1 µM,"human kinome [7]; PDGFRA, 100 nM",100%
same,remaining binding at 1 µM,"human kinome [7]; kinase PDGFRA (Entrez PDGFRA), compound concentration 1000 nM",80%
same,remaining binding at 1 µM,human kinome [8],76%
same,remaining binding at 0.1 µM,human kinome [9],100%
same,remaining binding at 0.1 µM,"human kinome [10]; NEK4, 100 nM",100%
same,remaining binding at 1 µM,"human kinome [10]; kinase NEK4 (Entrez NEK4), compound concentration 1000 nM",100%
same,remaining binding at 0.1 µM,"human kinome [11]; PLK1, 100 nM",100%
same,remaining binding at 1 µM,"human kinome [11]; kinase PLK1 (Entrez PLK1), compound concentration 1000 nM",89%
same,remaining binding at 0.1 µM,human kinome [12],100%
same,remaining binding at 0.1 µM,human kinome [13],100%
same,remaining binding at 0.1 µM,human kinome [14],100%
same,remaining binding at 0.1 µM,human kinome [15],96%
same,remaining binding at 0.1 µM,human kinome [16],64%
same,remaining binding at 0.1 µM,human kinome [17],95%
same,remaining binding at 1 µM,human kinome [18],19%
same,remaining binding at 0.1 µM,human kinome [19],100%
same,remaining binding at 0.1 µM,"human kinome [20]; NEK10, 100 nM",97%
same,remaining binding at 1 µM,"human kinome [20]; kinase NEK10 (Entrez NEK10), compound concentration 1000 nM",77%
same,remaining binding at 0.1 µM,human kinome [21],100%
same,remaining binding at 1 µM,human kinome [22],95%
same,remaining binding at 1 µM,human kinome [23],60%
same,remaining binding at 0.1 µM,human kinome [24],100%
same,remaining binding at 1 µM,human kinome [25],73%
same,remaining binding at 0.1 µM,"human kinome [26]; PLK2, 100 nM",100%
same,remaining binding at 1 µM,"human kinome [26]; kinase PLK2 (Entrez PLK2), compound concentration 1000 nM",83%
same,remaining binding at 0.1 µM,"human kinome [27]; PIK4CB (Entrez PI4KB), 100 nM",100%
same,remaining binding at 1 µM,"human kinome [27]; kinase PIK4CB (Entrez PI4KB), compound concentration 1000 nM",95%
same,remaining binding at 0.1 µM,human kinome [28],100%
same,remaining binding at 0.1 µM,"human kinome [29]; NDR2 (Entrez STK38L), 100 nM",100%
same,remaining binding at 1 µM,"human kinome [29]; kinase NDR2 (Entrez STK38L), compound concentration 1000 nM",100%

# Source: article PMC9898036, “VIP152 is a selective CDK9 inhibitor with pre-clinical in vitro and in vivo efficacy in chronic lymphocytic leukemia” (Leukemia, 2022)
